Key:
[1] = tested on: AMPA receptor; test: In vivo electrophysiology: field EPSP in dentate gyrus of anesthetized animals; parameters: species or system rat
Method: Animals are maintained under anesthesia by phenobarbital administered using a Hamilton syringe pump. Stimulating and recording electrodes are inserted into the perforant path and dentate gyrus of the hippocampus, respectively. Once electrodes are implanted, a stable baseline of evoked responses are elicited using single monophasic pulses (100 μs pulse duration) delivered at 3/min to the stimulating electrode. Field EPSPs are monitored until a stable baseline is achieved (about 20-30 min), after which a solution of test compound in HPCD is injected intraperitoneally and evoked field potentials are recorded. Evoked potentials are recorded for approximately 2 h following drug administration or until the amplitude of the field EPSP returns to baseline. In the latter instance, it is common that an iv administration is also carried out with an appropriate dose of the same test compound.

[2] = tested on: AMPA receptor; test: Rat hippocampal slice assay: field EPSP amplitude in CA1; assay type: cell-based
Method: (§1) In another test, excitatory responses (field EPSPs) were measured in hippocampal slices, which were maintained in a recording chamber continuously perfused with artificial cerebrospinal fluid (ACSF). During a 15-30 minute interval, the perfusion medium was switched to one containing various concentrations of the test compounds. Responses collected immediately before and at the end of drug perfusion were superimposed in order to calculate the percent increase in EPSP amplitude.
To obtain data for the activity of invention compounds on synaptic responses, a bipolar nichrome stimulating electrode was positioned in the dendritic layer (stratum radiatum) of the hippocampal subfield CA1 close to the border of subfield CA3. Current pulses (0.1 msec) through the stimulating electrode activate a population of the Schaffer-commissural (SC) fibers, which arise from neurons in the subdivision CA3 and terminate in synapses on the dendrites of CA1 neurons. Activation of these synapses causes them to release the transmitter glutamate. Glutamate binds to post-synaptic AMPA receptors, which then transiently open an associated ion channel and permit a sodium current to enter the postsynaptic cell. This current results in a voltage in the extracellular space (the field EPSP), which is recorded by a high impedance recording electrode positioned in the middle of the stratum radiatum of CA1.
The intensity of the stimulation current was adjusted to produce half-maximal EPSPs (typically about 1.5-2.0 mV). Paired stimulation pulses were given every 40 sec with an interpulse interval of 200 msec, as described further in Example 30.
as §1, with “Hippocampal slices” for “In another test, excitatory responses (field EPSPs) were measured in hippocampal slices, which”, “During” for “During a”, “intervals,” for “interval,”
To conduct these tests, the hippocampus was removed from anesthetized, 2 month old Sprague-Dawley rats and in vitro slices (400 μm thick) were prepared and maintained in an interface chamber at 35° C. using conventional techniques [see, for example, Dunwiddie and Lynch, J. Physiol. 276: 353-367 (1978)]. The chamber was constantly perfused at 0.5 mL/min with ACSF containing (in mM): NaCl 124, KCl 3, KH2PO4 1.25, MgSO4 2.5, CaCl2 3.4, NaHCO3 26, glucose 10 and L-ascorbate 2. A bipolar nichrome stimulating electrode was positioned in the dendritic layer (stratum radiatum) of the hippocampal subfield CA1 close to the border of subfield CA3.
Current pulses (0.1 msec) through the stimulating electrode activate a population of the Schaffer-commissural (SC) fibers, which arise from neurons in the subdivision CA3 and terminate in synapses on the dendrites of CA1 neurons. Activation of these synapses causes them to release the transmitter glutamate. Glutamate binds to the post-synaptic AMPA receptors, which then transiently open an associated ion channel and permit a sodium current to enter the postsynaptic cell. This current results in a voltage in the extracellular space (the field EPSP) which is recorded by a high impedance recording electrode positioned in the middle of the stratum radiatum of CA1. The intensity of the stimulation current was adjusted to produce half-maximal EPSPs (typically about 1.5-2.0 mV). Paired stimulation pulses were given every 40 s with an interpulse interval of 200 msec (see below). The field EPSPs of the second response were digitized and analyzed to determine amplitude. If the responses were stable for 15-30 min (baseline), test compounds were added to the perfusion lines for a period of about 15 min. The perfusion was then changed back to regular ACSF. […]

[3] = tested on: AMPA receptor; test: In vitro patch clamp electrophysiology assay: glutamate-induced whole-cell current in cultured cortical neurons; assay type: cell-based; conditions: rat cortical neurons, 500 μM glutamate
Method: Cortical cells were prepared from day 18-19 embryonic Sprague-Dawley rats and recorded after 3 days in culture. The extracellular solution (ECS) contained (in mM): NaCl (145), KCl (5.4), HEPES (10), MgCl2 (0.8), CaCl2 (1.8), glucose (10), sucrose (30); pH. 7.4. In order to block the voltage-gated sodium currents, 40 nM TTX was added to the recording solution. The intracellular solution contained (in mM): K-gluconate (140), HEPES (20), EGTA (1.1), phosphocreatine (5), MgATP (3), GTP (0.3), MgCl2 (5), and CaCl2 (0.1); pH: 7.2. All test compound and glutamate solutions were made-up in the extracellular solution.
The whole-cell current was measured with patch-clamp amplifier (Axopatch 200B), filtered at 2 kHz, digitized at 5 kHz and recorded on a PC with pClamp 8. The cells were voltage-clamped at −80 mV. Solutions were applied by DAD-12 system. A baseline response for each cell was recorded using a 1 s pulse of 500 μM glutamate dissolved in ECS. Responses to test compound were then determined by application of a 10 s pulse of test compound followed by a 1 s pulse of the same concentration of test compound plus 500 μM glutamate and then 10 s of saline. This pulse sequence was repeated until a stable reading was obtained, or until sufficient data points were measured to allow extrapolation to a calculated maximum change.
The mean value of plateau current between 600 ms to 900 ms after application of glutamate or test compound plus glutamate was calculated and used as the parameter to measure the drug effect. The plateau responses in the presence of varying concentrations of test compound were divided by the baseline response in order to calculate the percentage increase. Compounds are deemed active in this test if, at a test concentration of 3 μM or less, they produce a greater than 100% increase in the value of the steady-state current measured due to application of glutamate alone. The concentration at which the glutamate induced current is increased by 100% is commonly referred to as the EC2x value.

SMILES | melting point | also measured
C[C@H](Cn1cncn1)n1nnc2cc3c(=O)n(C4CC4)nnc3cc2c1=O | 195 to 199 °C | –
CC(Cn1cccn1)n1nnc2cc3c(=O)n(C4CC4)nnc3cc2c1=O (stereo not shown) | 178 to 180 °C | –
CC(Cn1ncnn1)n1nnc2cc3c(=O)n(C(C)Cn4ncnn4)nnc3cc2c1=O (stereo not shown) | 223 to 226 °C | –
CC(Cn1cnnn1)n1nnc2cc3c(=O)n(C(C)Cn4ncnn4)nnc3cc2c1=O (stereo not shown) | 204 to 206 °C | –
CC(Cn1cnnn1)n1cnc2cc3c(=O)n(C4CC4)nnc3cc2c1=O (stereo not shown) | 245 to 246 °C | –
CCC(Cn1ncnn1)n1cnc2cc3c(=O)n(C4CC4)nnc3cc2c1=O (stereo not shown) | 160 to 161 °C | –
CCC(Cn1cnnn1)n1cnc2cc3c(=O)n(C4CC4)nnc3cc2c1=O (stereo not shown) | 213 to 214 °C | –
CCC(Cn1nccn1)n1cnc2cc3c(=O)n(C4CC4)nnc3cc2c1=O (stereo not shown) | 129 to 130 °C | –
CCC(Cn1ccnn1)n1cnc2cc3c(=O)n(C4CC4)nnc3cc2c1=O (stereo not shown) | 215 to 217 °C | –
C#CCn1nnc2cc3c(=O)n(C(C)Cn4ncnn4)cnc3cc2c1=O (stereo not shown) | 222 to 223 °C | –
C#CCn1nnc2cc3c(=O)n(C(C)Cn4cnnn4)cnc3cc2c1=O (stereo not shown) | 218 to 219 °C | –
CC[C@H](Cn1cnnn1)n1cnc2cc3c(=O)n([C@H](C)Cn4ncnn4)nnc3cc2c1=O | 198 to 200 °C | –
CC[C@H](Cn1nnc(C)n1)n1cnc2cc3c(=O)n([C@H](C)Cn4ncnn4)nnc3cc2c1=O | 140 to 141 °C | –
CC[C@H](Cn1nnnc1C)n1cnc2cc3c(=O)n([C@H](C)Cn4ncnn4)nnc3cc2c1=O | 238 to 240 °C | –
CC[C@H](Cn1cnnn1)n1cnc2cc3c(=O)n([C@H](CC)Cn4cnnn4)nnc3cc2c1=O | 80 to 81 °C | –
C[C@H](Cn1cccn1)n1cnc2cc3c(=O)n([C@H](C)Cn4cc(Cl)cn4)cnc3cc2c1=O | 231 to 232 °C | –
C[C@H](Cn1cnnn1)n1nnc2cc3c(=O)n([C@H](C)Cn4ncnn4)nnc3cc2c1=O | 160 to 161 °C | –
C[C@H](Cn1ncnn1)n1nnc2cc3c(=O)n(C4CC4)nnc3cc2c1=O [Example 1, 3-Cyclopropyl-8-[(1R)-1-methyl-2-(2H-tetrazol-2-yl)ethyl]-3,8-dihydro[1,2,3]triazino[4,5-g][1,2,3]-benzotriazine-4,9-dione] | – | % increase in the amplitude of the field EPSP in rat dentate gyrus ([1]; @ 5 mpk i.p.): 37%^3; % increase in the amplitude of the field EPSP in the CA1 region of rat hippocampal slice ([2]; @ 3 μM): 69% @ 3 μM; In vitro Patch Clamp Electrophysiology EC2x (concentration at which the glutamate induced current is increased by 100%) [3]: 0.28 μM
C[C@H](Cn1ncnn1)n1nnc2cc3c(=O)n(C)nnc3cc2c1=O [Example 4, 3-Methyl-8-[(2R)-1-(2H-tetrazol-2-yl)propan-2-yl]-3,8-dihydrobenzo[1,2-d:4,5-d′]bis[1,2,3]triazine-4,9-dione] | – | % increase in the amplitude of the field EPSP in rat dentate gyrus ([1]; @ 5 mpk i.p.): 46%^3; % increase in the amplitude of the field EPSP in the CA1 region of rat hippocampal slice ([2]; @ 3 μM): 18% @ 3 μM; In vitro Patch Clamp Electrophysiology EC2x (concentration at which the glutamate induced current is increased by 100%) [3]: 0.28 μM
COCCn1nnc2cc3c(=O)n([C@H](C)Cn4ncnn4)nnc3cc2c1=O [Example 18, 3-(2-Methoxyethyl)-8-[(2R)-1-(2H-tetrazol-2-yl)propan-2-yl]-3,8-dihydrobenzo[1,2-d: 4,5-d′]bis[1,2,3]triazine-4,9-dione] | – | % increase in the amplitude of the field EPSP in rat dentate gyrus ([1]; @ 5 mpk i.p.): 34%^3; % increase in the amplitude of the field EPSP in the CA1 region of rat hippocampal slice ([2]; @ 10 μM): 35% @ 10 μM
C[C@H](Cn1ncnn1)n1nnc2cc3c(=O)n(CC#N)nnc3cc2c1=O [Example 22, {4,9-Dioxo-8-[(2R)-1-(2H-tetrazol-2-yl)propan-2-yl]-8,9-dihydrobenzo[1,2-d:4,5-d′]bis[1,2,3]triazin-3(4H)-yl}acetonitrile] | – | % increase in the amplitude of the field EPSP in rat dentate gyrus ([1]; @ 5 mpk i.p.): 42%^3; % increase in the amplitude of the field EPSP in the CA1 region of rat hippocampal slice ([2]; @ 3 μM): 24% @ 3 μM; In vitro Patch Clamp Electrophysiology EC2x (concentration at which the glutamate induced current is increased by 100%) [3]: 0.24 μM
C[C@H](Cn1ncnn1)n1cnc2cc3c(=O)n(C4CC4)nnc3cc2c1=O [Example 53, 3-Cyclopropyl-8-[(2R)-1-(2H-tetrazol-2-yl)propan-2-yl]-3,8-dihydro[1,2,3]triazino[4,5-g]quinazoline-4,9-dione] | – | % increase in the amplitude of the field EPSP in rat dentate gyrus ([1]; @ 5 mpk i.p.): 33%^3; % increase in the amplitude of the field EPSP in the CA1 region of rat hippocampal slice ([2]; @ 10 μM): 55% @ 10 μM; In vitro Patch Clamp Electrophysiology EC2x (concentration at which the glutamate induced current is increased by 100%) [3]: 0.60 μM
C[C@H](Cn1ncnn1)n1nnc2cc3c(=O)n([C@H](C)Cn4ncnn4)nnc3cc2c1=O [Example 80, 3,8-Bis[(2R)-1-(2H-tetrazol-2-yl)propan-2-yl]-3,8-dihydrobenzo[1,2-d:4,5-d′]bis[1,2,3]triazine-4,9-dione] | – | % increase in the amplitude of the field EPSP in rat dentate gyrus ([1]; @ 1 mpk i.p.): 59%^4; % increase in the amplitude of the field EPSP in the CA1 region of rat hippocampal slice ([2]; @ 3 μM): 65% @ 3 μM; In vitro Patch Clamp Electrophysiology EC2x (concentration at which the glutamate induced current is increased by 100%) [3]: 0.016 μM
